Results from publication PMC3626286 (Chemical research in toxicology, 2013).
Values joined by “and” are separate entries in the source; they are usually repeats but may differ in a detail not shown here. Identical values can stand only once. “Also recorded” adds a separate entry of the source. Like-named read-outs stand apart in the source and are kept apart here. Values belong to the compound of their own block, whether it stands above or below them.

How the values were obtained:
rat hepatocytes [1] = conditions: complete inhibition of acyl glucuronidation; cited from earlier work
[2] = cited from earlier work
rat hepatocytes [3] = conditions: cited from earlier work
rat hepatocytes [4] = assay type: in vitro ADME; conditions: for fold decrease in concentration on ice versus 37°C: 0°C versus 37°C; for concentration formed at 60 min / fold decrease in concentration on ice versus 37°C: 60 min
[5] = test system: equine liver glutathione-S-transferase (GST); conditions: 1 μM, GSH 10 mM, equine liver GST 30 units/ml, pH 7.4, 37°C
[6] = Chemical reactivity with GSH in buffer in the absence of GST; assay type: physicochemical; conditions: 1 μM, GSH 10 mM, 0.1 M potassium phosphate buffer pH 7.4, 37°C, without GST
[7] = Chemical stability in 0.1 M potassium phosphate buffer; assay type: physicochemical; conditions: for duration of incubation with no detectable hydrolysis: 1 μM, 0.1 M potassium phosphate buffer pH 7.4, 37°C, data not shown; for chemical stability over the 24 h incubation (in words): buffer, physiological conditions
rat hepatocytes [8] = conditions: cited from earlier work; remark: listed apart in the source
equine liver GST = conditions: after 30 min incubation; cited from earlier work
[9] = inhibitor 1 mM co-incubated with MFA
[10] = MFA 100 μM, rat hepatocytes, 37°C
[11] = in vitro in physiological buffer

Compound: CC(C(=O)O)c1ccccc1 (centres unmarked) [2-phenylpropionic acid]
decrease in covalent adduct formation (rat hepatocytes [1]): 18.7%

Compound: C[C@H](C(=O)O[C@@H]1O[C@H](C(=O)O)[C@@H](O)[C@H](O)[C@H]1O)c1ccccc1 [(S)-2-phenylpropionic-1-β-O-acyl glucuronide]
half-life of degradation (t1/2) [2]: 2.4 h

Compound: CC1(C)[C@H]2CC[C@]1(C)[C@H](O)C2 [(−)-borneol]
decrease in MFA-1-O-G formation (rat hepatocytes [3]; inhibitor 1 mM co-incubated with MFA (10 μM, 10 min)): 91% | inhibition of MFA-GSH formation (rat hepatocytes [3]; [9]): no inhibition

concentration formed at 60 min (rat hepatocytes [4]; [10]): 42200 nM | reactivity towards GSH (rate of MFA-GSH formation) in the presence of GST [5]: 0.07±0.01 nM MFA-GSH/min
Compound: Cc1cccc(Nc2ccccc2C(=O)O[C@@H]2O[C@H](C(=O)O)[C@@H](O)[C@H](O)[C@H]2O)c1C [MFA-1-O-G, mefenamic acid-1-O-acyl-glucuronide, reference compound]
formation on ice (in words) (rat hepatocytes [4]; rat hepatocytes on ice (0°C)): nearly undetectable; also recorded: no MFA-1-O-G formation | transacylation of GSH (rate of MFA-GSH formation) [6]: 0.02±0.02 nM MFA-GSH/min | half life of degradation ([2]; buffer under physiological conditions): ~ 16 h | half life of degradation ([2]; previously reported, also confirmed in the authors' laboratory): 16.5 h

fold lower concentration than MFA-GSH (rat hepatocytes [4]; [10]): 19 fold | maximum concentration formed (rat hepatocytes [4]; [10]): 90.2 nM | time of maximum concentration (rat hepatocytes [4]; [10]): 20 sec and ~ 20 sec | concentration at which formation levelled off (rat hepatocytes [4]; rat hepatocytes on ice (0°C)): 94.1 nM | time to maximum concentration (rat hepatocytes [4]; rat hepatocytes on ice (0°C)): 1 min | reactivity towards GSH (rate of MFA-GSH formation) in the presence of GST [5]: 1.25±0.28 nM MFA-GSH/min | duration of incubation with no detectable hydrolysis [7]: at least 24 h | chemical stability over the 24 h incubation (in words) [7]: chemically stable
Compound: Cc1cccc(Nc2ccccc2C(=O)OP(=O)(O)OC[C@H]2O[C@@H](n3cnc4c(N)ncnc43)[C@H](O)[C@@H]2O)c1C [MFA-AMP, mefenamic acid-acyl-adenylate]
transacylation of GSH (rate of MFA-GSH formation) [6]: 0.21±0.02 nM MFA-GSH/min

fold lower concentration than MFA-GSH (rat hepatocytes [4]; [10]): 37 fold | time point until which undetectable (rat hepatocytes [4]; [10]): 4 min | concentration formed at 60 min (rat hepatocytes [4]; [10]): 45.6 nM | time point until which undetectable (rat hepatocytes [4]; rat hepatocytes on ice (0°C)): 20 min and 10 min | concentration formed at 60 min (rat hepatocytes [4]; rat hepatocytes on ice (0°C)): 14.1 nM | fold decrease in concentration on ice versus 37°C (rat hepatocytes [4]; rat hepatocytes): 3.2 fold | reactivity towards GSH (rate of MFA-GSH formation) in the presence of GST [5]: 3.38±0.04 nM MFA-GSH/min | duration of incubation with no detectable hydrolysis [7]: at least 24 h
Compound: Cc1cccc(Nc2ccccc2C(=O)SCCNC(=O)CCNC(=O)[C@H](O)C(C)(C)COP(=O)(O)OP(=O)(O)OC[C@H]2O[C@@H](n3cnc4c(N)ncnc43)[C@H](O)[C@@H]2OP(=O)(O)O)c1C [MFA-CoA, mefenamic acid-S-acyl-Coenzyme A]
transacylation of GSH (rate of MFA-GSH formation) [6]: 2.38±0.64 nM MFA-GSH/min

concentration formed at 60 min (rat hepatocytes [4]; [10]): 1700 nM | concentration formed at 60 min (rat hepatocytes [4]; rat hepatocytes on ice (0°C)): 83.9 nM | fold decrease in concentration on ice versus 37°C (rat hepatocytes [4]; rat hepatocytes): 20 fold | duration of incubation with no detectable hydrolysis [7]: at least 24 h | chemical stability over the 24 h incubation (in words) [7]: stable
Compound: Cc1cccc(Nc2ccccc2C(=O)SC[C@H](NC(=O)CC[C@H](N)C(=O)O)C(=O)NCC(=O)O)c1C [MFA-GSH, mefenamic acid-S-acyl-glutathione]
metabolic half life (rat hepatocytes [8]): ~ 8 min | degradation in the presence of equine liver GST (equine liver GST): 10–11%

Compound: CC(C)(Oc1ccc(Cl)cc1)C(=O)SCCNC(=O)CCNC(=O)C(O)C(C)(C)COP(=O)(O)OP(=O)(O)OCC1OC(n2cnc3c(N)ncnc32)C(O)C1OP(=O)(O)O (centres unmarked) [clofibric acid-S-acyl-CoA]
degradation half life [2, 11]: 504 h | hydrolysis per day [2, 11]: ~ 2 % hydrolysis/day

Compound: CCCCCCCCCCCC(=O)O [lauric acid]
inhibition of MFA-CoA formation (rat hepatocytes [3]; [9]): 58% | inhibition of MFA-GSH formation (rat hepatocytes [3]; [9]): 66%

Compound: CC(C)(COP(=O)(O)OP(=O)(O)OC[C@H]1O[C@@H](n2cnc3c(N)ncnc32)[C@H](O)[C@@H]1OP(=O)(O)O)[C@@H](O)C(=O)NCCC(=O)NCCSC(=O)Cc1ccccc1 [phenylacetyl-S-acyl-CoA]
stability after one day of incubation (in words) [2]: completely stable

Compound: Cc1cc(CC(=O)O[C@@H]2O[C@H](C(=O)O)[C@@H](O)[C@H](O)[C@H]2O)n(C)c1C(=O)c1ccc(Cl)cc1 [zomepirac-1-β-O-acyl glucuronide]
half-life of degradation (t1/2) [2]: 0.45 h
